We go through nine molecules from patent US5179093A, “Quinoline-diones” (Schering Corporation, priority 1991, dated 1993).

SMILES strings stand for the structures. Converted amounts (≈) assume the structure as drawn.

In data set [1] the test system is HSV-2, strain MS. Description: Therapeutic guinea pig model of HSV infection (genital lesions). Format: in vivo. The protocol:
The in vivo assessment of anti-HSV efficacy was determined in the prophylactic guinea pig model of HSV infection described by Stanberry et al (1982) The Journal of Infectious Diseases-vol. 146, No. 3, pages 397-404, which is hereby incorporated by reference. Dosing of guinea pigs was comprised of an initial treatment with test compound given 24 hours prior to virus infection and subsequent administration of the compound every eight hours (T.I.D.) for a total of 10 days. Test compounds were administered subcutaneously in 0.5% buffered methyl cellulose at a dose of 60 mg per kg body weight of the animal. Animals were monitored daily for the development of genital lesions and neurological symptomology, both of which were recorded and compared to the results obtained with parallel groups which received placebo or acyclovir treatment. Efficacy was evaluated for each compound by scoring the ability of the compound to ameliorate genital lesions produced by infection with HSV-2, strain MS, expressed as Activity Coefficients. The Activity Coefficients. were calculated as follows: The ability of a test compound to ameliorate lesions was plotted graphically with the number of days being on one axis, and the number of lesions being on the other axis. The area under the resultant curve was put in the numerator of a fraction with the denominator either being the area under a similar curve where placebo was employed(EXP/PL), or the area under the curve where acyclovir was employed (EXP/ACV). Thus (Exp/PL) is the ratio of test compound to placebo. (Exp/ACV) is the ratio of test compound to acyclovir. […] In the therapeutic guinea pig model, dosing of guinea pigs started 24 hours after they were infected with the virus. Subsequent administration of the test compound was done every eight hours for a total of ten days. Activity coefficients were calculated in the same manner as described for the prophylactic guinea pig model above.

Data set [2] concerns HSV-2 (strain MS). Description: Transient expression of beta galactosidase in transfected HeLa cells superinfected with HSV-2 (HSV-β-GAL assay). The conditions noted are these: Human alphaherpesvirus 2, plasmid pON 245^ori-, moi=5 pfu/cell, 24 hours, read-out: ANTI-HSV ACTIVITY HSV-β-GAL ASSAY IC50. Format: cell-based. The protocol: HeLa and Vero cell cultures were maintained in Eagles Minimal Essential Medium (EMEM) which was supplemented with glutamine, penicillin, streptomycin and 10% fetal calf serum (10% EMEM). Stock cultures of HSV-2 (strain MS available from ATCC VR-540) were grown in and harvested from Vero cells. Viral stocks were titered in Vero cells according to established procedures.
Plasmid pON 245^ori- contains the promoter of the HSV-1 thymidine kinase (tk) gene located immediately 5' of the E. coli lac Z gene. In this arrangement, the tk promoter controls transcription from the bacterial gene in transient expression assays. Additionally, an SV40 polyadenylation signal is present at the 3' end of the lac Z gene to allow for the efficient translation of the mRNA in eucaryotic cells. The expression of beta galactosidase in a transient assay using pON 245^ori- is dependent upon superinfection of the transfected cells with HSV. […] For example see U.S. application Ser. No. 07/435,491 filed Sep. 5, 1989, the disclosure of which is incorporated herein by reference thereto.
HeLa cells were seeded into 96 well microtiter plates and allowed to grow to 80% confluency (approximately 35,000 cells/well). One half microgram of plasmid pON 245^ori- DNA was introduced into the cells of each well by the […] precipitation technique (Grahman and Van der Eb, 1973). Four to six hours later, the cells were rinsed with hank's Balanced Salt Solution (HBSS), overlaid with 10% EMEM and incubated at 37° C. At 24 hrs post-transfection, cells were rinsed, overlaid with 10% EMEM again and re-incubated at 37° C. At 48 hrs post-transfection, cells were rinsed and overlaid with either EMEM containing 2% fetal calf serum (2% EMEM), 2% EMEM containing HSV-2 (strain MS, Multiplicity of Infection [moi]=5 pfu/cell) or 2% EMEM containing HSV-2 and the appropriate concentration of Schering compound to be tested. Twenty-four hours later, the cells were harvested and assayed for beta galactosidase activity as described below.
All determinations of beta galactosidase activity were performed in 96 well microtiter plates. The intracellular level of beta galactosidase activity in each well was determined from cell lysates of the monolayer cultures. Aliquots were assayed by incubation in the presence of beta galactosidase substrate, 4-methylumbelliferyl-β-D-galactoside (MUG, 125 ug/ml, Sigma), for 2 hours. The generation of fluorescent product was quantified on a Microfluor microfluorimeter (Dynatech) after addition of 0.1M glycine, pH 10.3 (Spaete and Mocarski, 1985). The inhibitory activity of a compound was plotted versus the concentration and an IC50 value (the concentration of compound required to reduce beta glactosidase expression by 50%) was obtained for each compound tested.

In data set [3] the test system is HSV-2, strain MS. The data set is described as follows: Prophylactic guinea pig model of HSV infection (genital lesions). Format: in vivo. To be noted: 60 mpk × 3/24 hr, sc. Here is the method:
The in vivo assessment of anti-HSV efficacy was determined in the prophylactic guinea pig model of HSV infection described by Stanberry et al (1982) The Journal of Infectious Diseases-vol. 146, No. 3, pages 397-404, which is hereby incorporated by reference. Dosing of guinea pigs was comprised of an initial treatment with test compound given 24 hours prior to virus infection and subsequent administration of the compound every eight hours (T.I.D.) for a total of 10 days. Test compounds were administered subcutaneously in 0.5% buffered methyl cellulose at a dose of 60 mg per kg body weight of the animal. Animals were monitored daily for the development of genital lesions and neurological symptomology, both of which were recorded and compared to the results obtained with parallel groups which received placebo or acyclovir treatment. Efficacy was evaluated for each compound by scoring the ability of the compound to ameliorate genital lesions produced by infection with HSV-2, strain MS, expressed as Activity Coefficients. The Activity Coefficients. were calculated as follows: The ability of a test compound to ameliorate lesions was plotted graphically with the number of days being on one axis, and the number of lesions being on the other axis. […]

A short description of data set [4]: Compound toxicity assay: inhibition of HeLa cell translation (^3 H-LEU assay). It is filed as cell-based. To be noted: human; HeLa cells, overnight (24 hours) treatment, tritiated leucine incorporation; read-out: CYTOTOXICITY ^3 H--LEU ASSAY IC50. The protocol: HeLa cells were treated with inhibitory compound for 24 hours, after which levels of translational activity were assayed.
For assay of translational activity, HeLa cultures were grown to 80% confluency in 96 well microtiter plates, treated with appropriate concentrations of compound in 2% EMEM during an overnight incubation at 37° C., then rinsed with HBSS and overlaid with […] of 2% EMEM containing 8 uCi of tritiated leucine (^3 H-LEU, 141 Ci/mMol, Amersham Corp., Arlington Heights Ill.). After 1 hr incubation at 36.5° C., the cells were rinsed twice with phosphate buffered saline (PBS) and lysed in 400 ul/well of 1×PBS, 0.5% sodium dodecyl sulphate (SDS). After a 10 minute incubation at 36.5° C., the contents of the well were transferred to a well in a Millititer HA microfiltration plate (Millipore Corp., Bedford, MA). The TCA insoluble proteins were precipitated onto the filter disc by a 10 minute fixation with 5% TCA, followed by filtration under vacuum and three 10 minute rinses with 95% ethanol. The filters were dried at room temperature, cut from the milltitier plate and transferred to scintillation vials. TCA precipitable counts were assayed in 5 ml of Scintisol (Isolab, Akron, Ohio). The inhibitory activity of a compound was plotted versus the concentration and an IC50 value (that concentration of the compound required to decrease cellular translational activity by 50%) was derived for each compound.

For data set [5], the system named is herpes virus. To be noted: added to lidocaine or lidocaine hydrochloride; Haines et al.; cited from earlier work.
Data set [6] has as its system HSV-1. The conditions noted are these: U.S. Pat. No. 4,757,088; cited from earlier work.
Data set [7] concerns herpes virus. The conditions noted are these: U.S. Pat. No. 4,757,088; cited from earlier work.
For data set [8], the system named is HSV-2. To be noted: U.S. Pat. No. 4,757,088; cited from earlier work.
In data set [9] the test system is HSV. The conditions noted are these: according to Haines et al.; cited from earlier work.

Take `Nc1nc2c(ncn2COCCO)c(=O)[nH]1` [ACV, 9-[(2-hydroxyethoxy)methyl]guanine, reference compound]: the “efficacy of acyclovir in the therapeutic study” value in data set [1] (therapeutic study with Example 45) is given as “not efficaceous”.

As to `O=C1C(=CNCc2ccccc2)C(=O)N(Cc2ccccc2)c2ccccc21` [EX. 23, (E,Z)1-Benzyl-3-Benzylaminomethylene-Quinolin-2,4(1H)-Dione], the half-inhibitory concentration (IC50) in data set [2] was 5 µg/mL (≈ 13.6 µM). For the same molecule, in data set [3] (lesion score AUC days 1-10, ratio test compound to acyclovir), the “Activity Coefficient (Exp/ACV)” value is recorded as 4.05 ± 2.21. Moreover, the “Activity Coefficient (Exp/PL)” value in data set [3] (lesion score AUC days 1-10, ratio test compound to placebo) is given as 0.67 ± 0.03. Further, in data set [4], the CC50 at 24 h is more than 100 µg/mL.

Turning to `COc1ccc(OCCCOCN2C(=O)C(=CNCc3ccncc3)C(=O)c3ccccc32)c(Cl)c1` [EX. 43, (E,Z) 1-[3(2-chloro-4-methoxyphenoxy)-propyloxymethyl]-3-(4-pyridylmethylamino)methylene-quinolin-2,4(1H)dione], the IC50 in data set [2] amounted to 10 µg/mL (≈ 19.7 µM). In addition, the CC50 at 24 h in data set [4] amounted to 30 µg/mL (≈ 59.1 µM).

For `CCNC=C1C(=O)c2ccccc2N(C)C1=O` [EX. 44, (E,Z) 1-methyl-3-ethylaminomethylene-quinolin-2,4(1H)dione], the IC50 in data set [2] came to 14 µg/mL (≈ 60.8 µM). Also, in data set [4], the CC50 at 24 h is 43 µg/mL (≈ 187 µM).

In the case of `O=C1C(=CNCc2ccccc2)C(=O)N(Cc2ccccc2)c2ccsc21` [EX. 45, (E,Z) 4-benzyl-6-benzylaminomethylene-thieno[3,2-b]pyridine-5,7(4H,6H)-dione], in data set [1] (30 mpk × 3/24 hr, sc, therapeutic, lesion score AUC days 1-10, ratio test compound to placebo), the “Activity Coefficient (Exp/PL)” value is 0.71. Further, the “Activity Coefficient (Exp/ACV)” value in data set [1] (30 mpk × 3/24 hr, sc, therapeutic, lesion score AUC days 1-10, ratio to acyclovir, ACV was not efficaceous in this study) came to 0.93. For the same molecule, in data set [2], the IC50 came out at 4 µg/mL (≈ 10.7 µM). Also, the CC50 at 24 h in [4] came to 40 µg/mL (≈ 107 µM).

In the case of `O=C1C(=CNCc2ccncc2)C(=O)N(Cc2ccccc2)c2ccsc21` [EX. 46], in data set [2], the IC50 came out at 3 µg/mL (≈ 7.99 µM). In addition, the CC50 at 24 h in data set [4] was found to be 23 µg/mL (≈ 61.3 µM).

Consider `CC(C)(CO)[C@@H](O)C(=O)NCCCO` [dexpanthenol], for which the “enhancement of antiviral activity” value in data set [5] was “significantly enhances the antiviral activity”.

For the molecule `CCN(CC)CC(=O)Nc1c(C)cccc1C` [lidocaine, 2-(diethylamino)-N-(2,6-dimethylphenyl)acetamide], the “antiviral activity in cell culture against HSV-1” value in [6] was “antiviral agent in cell culture against HSV-1 and HSV-2”. For the same molecule, the “ability to treat herpes virus infections of mammals” value in [7] is given as “able to treat herpes virus infections of mammals”. The “antiviral activity in cell culture against HSV-2” value in [8] is “antiviral agent in cell culture against HSV-1 and HSV-2”. The “treatment of HSV oral and genital lesions in humans” value in data set [9] was “particularly effective”.

For `CC(C)(CO)[C@@H](O)C(=O)NCCC(=O)O` [pantothenic acid], in [5], the “enhancement of antiviral activity” value is “significantly enhances the antiviral activity”.
